One assay has as its system C. elegans. The experiment in a line: Worm lifespan analysis. The class given is in vivo. The following applies: for variation compared to control (%): vs N2 + water. Here is the method:
Worm Lifespan Analysis Lifespan tests were performed as described in Mouchiroud et al (L. Mouchiroud et al., Pyruvate imbalance mediates metabolic reprogramming and mimics lifespan extension by dietary restriction in Caenorhabditis elegans. Aging Cell 10, 39 (2011)). Briefly, 60-100 animals were used per conditions and scored every other day. All lifespan experiments were performed at 20° C. […] Animals were exposed to compounds during the full life from eggs until death. To ensure a permanent exposure to the compound, plates were changed twice a week. All the compounds used in this study were dissolved in a water stock solution.

For another assay, the system named is C57Bl/6J mice. Put plainly: NAD+ content in mouse tissues after one week of supplemented chow. The following applies: 400 mg/kg/day in chow; for muscle NAD+ content: quadriceps. In kind it is in vivo. The procedure:
Animal Experiments. […] In other animal experiments, 8 weeks-old male C57Bl/6J mice were purchased from Charles River and powder chow (D12450B) and high fat (D12492) diets were from Research Diets Inc (New Brunswick, N.J., USA). 80 ml of water per kg of powder CD were used to make food pellets. 40 ml of water per kg of powder HFD were used to make food pellets. […] Mice were housed separately, had ad libitum access to water and food and were kept under a 12 h dark-light cycle. Mice were fed with homemade pellets from 10 weeks of age. […] All animal experiments were carried out according to local national and EU ethical guidelines. To monitor body weight, mice were weighed and the food consumption was measured each week on the same day. In case of PJ34 treatment, mice received each 12 h (at 7:00 and 19:00) 10 mg/kg PJ34 by intraperitoneal injection for 5 continuous days. In all studies animals were killed (at 14:00) either after CO2 inhalation or cervical dislocation after 6 h of fasting (starting at 8:00), and tissues were collected and processed as specified below. […] Plasma insulin and was determined in heparinized plasma samples using specific ELISA kits (Mercodia). Blood samples were collected in heparinized tubes and plasma was isolated after centrifugation. Plasma parameters were measured using a Cobas c111 (Roche Diagnostics). […] The respiratory quotient was the ratio of CO2 production over O2 consumption. During actimetry, beamline crossings were summarized each 15 minutes.
NAD^+ NAM Determination. NAD^+ levels in cultured cells were determined using a commercial kit (Enzychrom™, BioAssays Systems, CA). […] 70 L of ice-cold 7% perchloric acid was then added and the sample was vortexed and sonicated three times, then centrifuged. Clear supernatant was removed and neutralized by additions of 3 M NaOH and 1 M phosphate buffer (pH=9), then centrifuged. Clear supernatant was injected onto HPLC C-18 column with 20 mM ammonium acetate eluent to separate NAD^+ and NAM from other cellular components, NAD^+ and NAM peaks (260 nm absorbance) were collected. Collections were lyophilized to dryness and subjected to MALDI-TOF analysis. […] Corrections were applied for isotopic abundance.

The test system of the next assay is C2C12 myotubes. The experiment in a line: Intracellular NAD+ content in C2C12 myotubes treated with PARP inhibitors. In kind it is cell-based. The procedure:
Cell Culture, Transfection, Adenoviral Infection and Mitochondrial Characterization. HEK293T, MEF and C2C12 cells were cultured in DMEM (4.5 g/l glucose, 10% FCS). PARP-1^+/+ and PARP-1^−/− MEFs were prepared as described in (Menissier-de Murcia et al., 1997). SIRT1 and MEFs were kindly provided by Fred Alt (Chea et al., 2005). SIRT3 MER were established according to standard techniques from conditional SERT3^−/− mice. (Picard, F., Gehin, M., Annicotte, J., Rocchi, S., Champy, M. F., O'Malley, B. W., Chambon, P., and Auwerx, J. (2002). SRC-1 and TIF2 control energy balance between white and brown adipose tissues. Cell 111, 931-941.) Deletion of the SIRT3 gene was induced via infection with adenovirus encoding for the Cre recombinase. HEK293T cells were transfected using JetPei reagent (Polyplus Transfections, Illkirch, France) according to the manufacturer's instructions. C2C12 cells were differentiated in DMEM (4.5 g/L glucose, 2% horse serum) after reaching confluency for 2 days, followed by 2 days of PJ34 treatment (10 μM). PARP-1 shRNA constructs were described in (Shah et al., 2005). Human PARP-1 and siRNAs were obtained from Dharmacon (Thermo Scientific). The adenovirus encoding for FLAG-HA-PGC-1α, control and SIRT1 shRNAs were a kind gift from Pere Puigserver and were used (MOI=100) in C2C12 myotubes as described (Canto et al., 2009). Mitochondrial charge determination was performed as described (Bai et al., 2001) and DNA strand breaks were quantified by TUNEL assays according to the manufacturer's instructions (Millipore).
NAD^+ NAM Determination. NAD^+ levels in cultured cells were determined using a commercial kit (Enzychrom™, BioAssays Systems, CA). For tissue samples NAD^+ and NAM levels were determined as described in (Sauve et al., 2005). In brief, to a weighed aliquot of frozen pulverized tissue we added as standards, ^18O-NAD^+ (typically 2.00 nmol) and ^18O-NAM (typically 2.00 nmol). 70 L of ice-cold 7% perchloric acid was then added and the sample was vortexed and sonicated three times, then centrifuged. Clear supernatant was removed and neutralized by additions of 3 M NaOH and 1 M phosphate buffer (pH=9), then centrifuged. Clear supernatant was injected onto HPLC C-18 column with 20 mM ammonium acetate eluent to separate NAD^+ and NAM from other cellular components, NAD^+ and NAM peaks (260 nm absorbance) were collected. Collections were lyophilized to dryness and subjected to MALDI-TOF analysis. For NAD^+ measurement, ratio of intensities for m/z=664 and 666 peaks, corresponding to ^16O- and ^18O-NAD^+ isotopomers, was multiplied by 2.00 nmol and then divided by tissue weight to determine NAD+ concentration in the sample. For NAM the ratio of intensities for m/z=123 and 125 peaks, corresponding to ^16O- and ^18O-NAM isotopomers, was multiplied by 2.00 nmol and then divided by tissue weight to determine NAM concentration in the sample. Corrections were applied for isotopic abundance. Other NAD metabolites were determined as previously described (Yang and Sauve, Synthesis of nictotinamide riboside and derivatives: effective agents for increasing nictinomide adenine dinucleotide concentrations in mammalian cells. J Med Chem 50, 6458-6461 (2006)).

Another assay has as its target T1, GPR109A (Homo sapiens, UniProt Q8TDS4).
T1 construct: host or cells: Chem-4 cells (Ready-to-Assay GPR109A Nicotinic Acid Receptor Cells)
The class given is cell-based. The settings on record: GPR109A-expressing Chem-4 cells. Here is the method:
GPR109A—Calcium Mobilization Assay. Ready-to-Assai™ GRP109A Nicotinic Acid Receptor Cells were used to measure calcium mobilization as specified by the manufacturer (Millipore). Calcium flux was determined using excitation at 340 and 380 nm in a fluorescence spectrophotometer (Victor X4, Perkin Elmer) in a 180 seconds time course, adding the ligand at 60 seconds. Internal validation was made using 0.1% Triton X-100 for total fluorophore release and 10 mM EGTA to chelate free calcium. Similarly, GPR109A specificity was internally validated using control cells devoid of GRP109A overexpression. Liver triglyceride measurement Liver triglycerides were measured from 20 mg of liver tissue using a variation of the Folch method, as described in Bai et al. (Bai et al., PARP-2 regulates SIRT1 expression and whole-body energy expenditure. (2011). Cell Metab 13, 450-460.

Molecules are shown by their SMILES. Several values for one entry are separate records, joined by “and”; a condition that tells them apart may be missing. Identical values can stand only once.

T1 sequence (Q8TDS4 whole entry): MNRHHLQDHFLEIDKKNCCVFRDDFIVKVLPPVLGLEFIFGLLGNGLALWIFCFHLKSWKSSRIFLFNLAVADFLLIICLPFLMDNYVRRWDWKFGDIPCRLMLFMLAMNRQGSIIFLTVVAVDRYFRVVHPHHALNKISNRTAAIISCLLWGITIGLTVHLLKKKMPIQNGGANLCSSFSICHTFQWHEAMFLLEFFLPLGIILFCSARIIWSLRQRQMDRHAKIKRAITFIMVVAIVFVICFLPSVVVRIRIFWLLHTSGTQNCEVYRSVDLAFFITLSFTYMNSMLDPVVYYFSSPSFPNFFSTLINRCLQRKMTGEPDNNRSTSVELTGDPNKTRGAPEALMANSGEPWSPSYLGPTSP

Take `C[C@]1(c2nc3c(C(N)=O)cccc3[nH]2)CCCN1` [ABT-888]: the lifespan extension in the assay on C. elegans (100 nM (FIG. 34B)) is 15%. Moreover, the “mean lifespan ± SE” value in the assay with C. elegans (N2, 100 nM, listed as ABT) was 22.3 ± 1.01 days and 22.5 ± 1.05 days; with C. elegans (N2, 500 nM), 22.1 ± 1.20 days; in the assay with C. elegans (N2, 1000 nM) it was 20.0 ± 1.23 days. In addition, the “variation compared to control (%)” value with C. elegans (N2, 500 nM) is reported as “+13.9%”; with C. elegans (N2, 1000 nM), “+3.6%”.
Regarding `O=C(O)c1cccnc1` [NA, nicotinic acid, reference compound], the “muscle NAD+ content” value in the assay with C57Bl/6J mice is given as “significantly enhanced muscle NAD^+ content”.
Take `O=C1N=C2SCC=C2c2ccccc21` [TIQ-A]: in the assay with C2C12 myotubes, the “intracellular NAD+ content upon PARP inhibition” value is “confirmed the increase in NAD^+ content”.
As for `NC(=O)c1ccc[n+]([C@@H]2O[C@H](COP(=O)([O-])O)[C@@H](O)[C@H]2O)c1` [NMN, nicotinamide mononucleotide, reference compound], the “GPR109A activation (calcium flux)” value on GPR109A was “did not activate GPR109A”. Moreover, in the assay with C57Bl/6J mice, the “NAD+ levels in liver” value is given as “increased NAD^+ levels in liver”; the “muscle NAD+ content” value was “only NR and NA significantly enhanced muscle NAD^+ content”.

(Values after patent US10709724B2, “Methods of treating mitochondrial dysfunction” (Ecole Polytechnique Federale de Lausanne (EPFL), priority 2011, dated 2020).)
